Test [1] has as its system Influenza A virus A/WSN/33 (H1N1) neuraminidase (NA), wild type, SEQ ID NO: 4. In kind it is biochemical.
Test [2] relates to Influenza A virus A/WSN/33 (H1N1) neuraminidase (NA) on virus, wild type, SEQ ID NO: 4. In kind it is biochemical.

On to `CC(=O)N[C@H]1[C@H]([C@H](O)[C@H](O)CO)O[C@@](O[C@H]2[C@@H](O)[C@@H](CO)O[C@@H](O[C@H]3[C@H](O)[C@@H](NC(C)=O)C(O)O[C@@H]3CO)[C@@H]2O)(C(=O)O)C[C@@H]1O` (stereo partly drawn) [3SLN, 3′-sialyl-N-acetyllactosamine], for which, in test [1], the Kcat was 688.2 s⁻¹, the Km (commonly the concentration of substrate that gives half-maximal velocity) was 125 µM and the Vmax (usually the top rate of the reaction or transport when substrate is in excess) is given as 7.04 nM/s. For the same molecule, the Km in test [2] was determined as 115 µM.
For `CC(=O)N[C@H]1[C@H]([C@H](O)[C@H](O)CO)O[C@@](Oc2ccc3c(C)cc(=O)oc3c2)(C(=O)O)C[C@@H]1O` [4-Muα-Neu5Ac, 2-(4-methylumbelliferyl)-α-D-N-acetylneuraminic acid], in test [1], the Kcat turned out to be 514.3 s⁻¹, the Km came out at 585 µM and the Vmax worked out at 5.025 nM/s. In addition, the Km in test [2] worked out at 487 µM.
On the same counts, the results for `CC(=O)N[C@H]1[C@H]([C@H](O)[C@H](O)CO)O[C@@](OC[C@H]2O[C@@H](O[C@H]3[C@H](O)[C@@H](NC(C)=O)C(O)O[C@@H]3CO)[C@H](O)[C@@H](O)[C@H]2O)(C(=O)O)C[C@@H]1O` (stereo partly drawn) [6SLN, 6′-sialyl-N-acetyllactosamine] are 104.2 s⁻¹, 679 µM, 1.07 nM/s and 534 µM.

Values taken from US12607406B2, “Recombinant virus, composition comprising the same, and uses thereof” (ACADEMIA SINICA, priority 2016, dated 2026).
